IC50 data for eight compounds are collected here from patent publication US12403121B2, “Anticancer rocaglamide derivatives” (priority 2018, dated 2025).

Assay [1] concerns Ben-Men-1 NF2−/− meningioma cells. Nature of the assay: 3-day resazurin cell proliferation assay, Ben-Men-1 meningioma cells. Format: cell-based, human. The conditions noted are these: 3-day resazurin proliferation assay, average IC50, read-out: IC50 (nM) Ben-Men-1 NF2−/− meningioma cells. The method, then:
(§1) The human MPNST cell lines, ST8814, STS26T, S462, T265, and luciferase-expressing ST8814-Luc, the human NF2-deficient meningioma cell line Ben-Men-1, the NJ2 mouse schwannoma cell line Sch10545, and primary human Schwann cells were propagated as previously described. Oblinger et al., Neuro-Oncol., 18:1265-1277 (2016). The Ewing sarcoma cell line A673 and the osteosarcoma cell lines, 143B and MG-63, were grown in Dulbecco's Modified Eagle's (DME) medium (Millipore-Sigma) supplemented with 10% fetal bovine serum (FBS; Atlanta Biological). The silvestrol-sensitive 697 and silvestrol-resistant 697-R pre-B acute lymphoblastic leukemia cells (Gupta et al., AAPS J., 13:357-364 (2011)), the Ewing sarcoma cell line TC32, the osteosarcoma cell lines, Saos2 and OS17, and the rhabdomyosarcoma cell line RD were cultivated in RPMI 1640 medium (Millipore-Sigma) plus 10% FBS.
(§2) Actively-growing cells were seeded in 96-well plates (Sarstedt) at 2,000 cells/well for Ben-Men-1 and RD cells, 30,000 cells/well for 697 and 697-R cells, and 4,000 cells/well for all other cell lines. The following day, cells were treated with various concentrations of each compound or and 0.05% of DMSO as the control for six days for MG-63 cells or three days for all remaining cell lines. Cell proliferation was assessed using resazurin assays and the IC50 value calculated. Cell cycle analysis was performed accordingly. Burns et al., Cancer Res., 73:792-803 (2013).
(§3) To search for compounds with better drug-like properties, the inventors conducted a side-by-side comparison of ten rocaglates lacking the dioxanyl ring with silvestrol for growth-inhibitory activity in a panel of MPNST, schwannoma, and meningioma cell lines, which they had previously shown to be sensitive to the antiproliferative action of silvestrol. […] The average IC50 value of each rocaglate was determined by 3-day resazurin proliferation assays. […] Further structure and activity comparison discerned some positions on the cyclopenta[b]benzofuran scaffold that affected the antiproliferative activity of rocaglates.
On the technique in general: Alamar Blue is a resazurin reagent that responds to reducing activity.

Assay [2] deals with STS26T NF1+/+ MPNST cells. In words: 3-day resazurin cell proliferation assay, STS26T MPNST cells. Format: cell-based, human. The note with it: 3-day resazurin proliferation assay, average IC50, read-out: IC50 (nM) STS26T NF1+/+ MPNST cells. The method, then:
as §1, §2, §3

The subject of assay [3] is Sch10545 Nf2−/− schwannoma cells. Nature of the assay: 3-day resazurin cell proliferation assay, Sch10545 schwannoma cells. Format: cell-based, mouse. The note with it: 3-day resazurin proliferation assay, average IC50, read-out: IC50 (nM) Sch10545 Nf2−/− schwannoma cells. The procedure:
as §1, §2, §3

The subject of assay [4] is ST8814 NF1−/− MPNST cells. In words: 3-day resazurin cell proliferation assay, ST8814 MPNST cells. The conditions noted are these: 3-day resazurin proliferation assay, average IC50, read-out: IC50 (nM) ST8814 NF1−/− MPNST cells. Format: cell-based, human. The procedure: as §1, §2, §3

Like-named read-outs stand apart in the source and are kept apart here. Where only a bound is given, the exact number is not on record here.

In the case of `COc1cc(OC)c2c(c1)OC1(c3ccc4c(c3)OCO4)C(c3ccccc3)CC(O)C21O` (centres unmarked) [4′-demethoxy-3′,4′-methylenedioxyrocaglaol], the IC50 in assay [1] was 85 nM; in assay [2], 55 nM; in assay [3] it was 65 nM; in assay [4], 120 nM.
For `COc1cc(OC)c2c(c1)OC1(c3ccc4c(c3)OCO4)C(c3ccccc3)CC(O)C21OC` (centres unmarked) [8b-O-methyl-4′-demethoxy-3′,4′-methylenedioxyrocaglaol] the same measures were over 2500 nM, 5000 nM, over 2500 nM and 10000 nM.
The matching figures for `COc1ccc([C@@]23Oc4cc(OC)cc(OC)c4[C@]2(OC)[C@H](O)C[C@H]3c2ccccc2)cc1` [8b-O-methylrocaglaol]: over 20000 nM, over 20000 nM, over 20000 nM and over 20000 nM.
The matching figures for `COC(=O)C1C(O)C2(O)c3c(OC)cc(OC)cc3OC2(c2ccc3c(c2)OCO3)C1c1ccccc1` (centres unmarked) [Methyl 4′-demethoxy-3′,4′-methylenedioxyrocaglate]: 80 nM, 35 nM, 60 nM and 70 nM.
On to `COC(=O)C1C(O)C2(OC)c3c(OC)cc(OC)cc3OC2(c2ccc3c(c2)OCO3)C1c1ccccc1` (centres unmarked) [Methyl 8b-O-methyl-4′-demethoxy-3′,4′-methylenedioxyrocaglate], for which the IC50 in assay [1] turned out to be 3800 nM; in assay [2], 1300 nM; in assay [3], 1900 nM; in assay [4] it was 2000 nM.
For `COC(=O)C1C(O)C2(OC)c3c(OC)cc(OC)cc3OC2(c2ccc(OC)cc2)C1c1ccccc1` (centres unmarked) [Methyl 8b-O-methylrocaglate] the same measures were over 10000 nM, at least 10000 nM, 9300 nM and over 20000 nM.
For `COC(=O)[C@H]1[C@@H](O)[C@@]2(O)c3c(OC)cc(OC)cc3O[C@@]2(c2ccc(OC)cc2)[C@@H]1c1ccccc1` [Methyl rocaglate] the same measures were 55 nM, 25 nM, 50 nM and 35 nM.
With `COc1ccc([C@@]23Oc4cc(OC)cc(OC)c4[C@]2(O)[C@H](O)C[C@H]3c2ccccc2)cc1` [Rocaglaol], the IC50 in assay [1] (Homo sapiens, 72 h) is 100 nM; in assay [2] (Homo sapiens, STS-26T, 72 h), 40 nM; in assay [3] (Mus musculus, 72 h), 60 nM; in assay [4] (Homo sapiens, ST88-14, 72 h), 90 nM.
